Data as given in patent US8859574B2 (IRM LLC, priority 2008, dated 2014).

These compounds were tested against T1, IGF-1R Ba/F3 (Homo sapiens, UniProt P08069) (assay: Ba/F3 Cell Viability Inhibition Assay (IGF-1R Ba/F3)). Settings: Tel-TK transformed Ba/F3 cells, 48 hours, Britelite luminescence.
T1 construct: fused on or other part: TEL- (or BCR-) IGF-1R in Ba/F3: the kinase part holds the site
Type: cell-based, murine
How it was run: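 IL-3-independent murine Ba/F3 cells transformed with a TEL/BCR-fused IGF-1R kinase were seeded at 3750 cells/well and exposed to serially diluted compound for 48 h at 37 °C. Viability was read by Britelite luminescence. IC50 is the concentration giving 50% of DMSO-control viability, from a logistic fit.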

T1 sequence (P08069 999-1274 limits assumed): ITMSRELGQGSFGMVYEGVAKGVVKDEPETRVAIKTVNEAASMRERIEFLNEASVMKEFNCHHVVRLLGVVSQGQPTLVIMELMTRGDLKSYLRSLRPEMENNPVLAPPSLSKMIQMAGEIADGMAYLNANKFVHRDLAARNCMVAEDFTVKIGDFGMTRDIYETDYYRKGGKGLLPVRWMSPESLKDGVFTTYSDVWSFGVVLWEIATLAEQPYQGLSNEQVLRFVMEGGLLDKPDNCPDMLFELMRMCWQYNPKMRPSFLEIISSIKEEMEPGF

Compound | IC50 [nM]
Cc1cc(Nc2nc(Nc3cc(C)c(C4CCN(C(=O)NCCN(C)C)CC4)cc3F)ncc2Cl)n[nH]1 [Compound 109, 4-(4-(5-chloro-4-(5-methyl-1H-pyrazol-3-ylamino)pyrimidin-2-ylamino)-5-fluoro-2-methylphenyl)-N-(2-(dimethylamino)ethyl)piperidine-1-carboxamide] | 60
Cc1cc(Nc2nc(Nc3cc(C)c(C4CCN(CCS(C)(=O)=O)CC4)cc3C)ncc2Cl)n[nH]1 [Compound 56, 5-chloro-N2-(2,5-dimethyl-4-(1-(2-(methylsulfonyl)ethyl)piperidin-4-yl)phenyl)-N4-(5-methyl-1H-pyrazol-3-yl)pyrimidine-2,4-diamine] | 6
Cc1cc(Nc2nc(Nc3cc(C)c(C4CCN(Cc5cnccn5)CC4)cc3C)ncc2Cl)n[nH]1 [Compound 318, 5-chloro-N2-(2,5-dimethyl-4-(1-(pyrazin-2-ylmethyl)piperidin-4-yl)phenyl)-N4-(5-methyl-1H-pyrazol-3-yl)pyrimidine-2,4-diamine] | 10
CNC(C)(C)C(=O)N1CCC(c2cc(F)c(Nc3ncc(Cl)c(Nc4cc(C)[nH]n4)n3)cc2C)CC1 [Compound 87, 1-(4-(4-(5-chloro-4-(5-methyl-1H-pyrazol-3-ylamino)pyrimidin-2-ylamino)-5-fluoro-2-methylphenyl)piperidin-1-yl)-2-methyl-2-(methylamino)propan-1-one] | 17
Cc1cc(Nc2nc(Nc3cc(C)c(C4CC[N+]([O-])(C5CS(=O)(=O)C5)CC4)cc3F)ncc2Cl)n[nH]1 (centres unmarked) [Compound 295, 5-Chloro-N2-{4-[1-(1,1-dioxo-1λ6-thietan-3-yl)-1-oxide-piperidin-4-yl]-2-fluoro-5-methyl-phenyl}-N4-(5-ethyl-1H-pyrazol-3-yl)-pyrimidine-2,4-diamine] | 39
Cc1cc(Nc2nc(Nc3cc(C)c(C4CCN(CCCC(=O)N5CCOCC5)CC4)cc3F)ncc2Cl)n[nH]1 [Compound 246, 4-(4-(4-(5-Chloro-4-(5-methyl-1H-pyrazol-3-ylamino)pyrimidin-2-ylamino)-5-fluoro-2-methylphenyl)piperidin-1-yl)-1-morpholinobutan-1-one] | 58
Cc1cc(Nc2nc(Nc3cc(C(F)(F)F)c(N4CCOCC4)cc3F)ncc2Cl)n[nH]1 [Compound 153, 5-chloro-N2-(2-fluoro-4-morpholino-5-(trifluoromethyl)phenyl)-N4-(5-methyl-1H-pyrazol-3-yl)pyrimidine-2,4-diamine] | 91
Cc1cc(Nc2nc(Nc3cc(C)c(C4CCCCN4CC(N)=O)cc3C)ncc2Cl)n[nH]1 (centres unmarked) [Compound 181, 2-(2-(4-(5-Chloro-4-(5-methyl-1H-pyrazol-3-ylamino)pyrimidin-2-ylamino)-2,5-dimethylphenyl)piperidin-1-yl)acetamide] | 24
CNC(=O)C(C)N1CCC(c2cc(C)c(Nc3ncc(Cl)c(Nc4cc(C)[nH]n4)n3)cc2C)CC1 (centres unmarked) [Compound 52, 2-(4-(4-(5-chloro-4-(5-methyl-1H-pyrazol-3-ylamino)pyrimidin-2-ylamino)-2,5-dimethylphenyl)piperidin-1-yl)-N-methylpropanamide] | 6
Cc1noc(CN2CCC(c3cc(C)c(Nc4ncc(Cl)c(Nc5cc(C)[nH]n5)n4)cc3C)CC2)n1 [Compound 302, 5-chloro-N2-(2,5-dimethyl-4-(1-((3-methyl-1,2,4-oxadiazol-5-yl)methyl)piperidin-4-yl)phenyl)-N4-(5-methyl-1H-pyrazol-3-yl)pyrimidine-2,4-diamine] | 6
Cc1cc(Nc2nc(Nc3cc(C)c(C4CCN(C(=O)OCCN(C)C)CC4)cc3F)ncc2Cl)n[nH]1 [Compound 108, (dimethylamino)ethyl 4-(4-(5-chloro-4-(5-methyl-1H-pyrazol-3-ylamino)pyrimidin-2-ylamino)-5-fluoro-2-methylphenyl)piperidine-1-carboxylate] | 53
COC(=O)c1cc(Nc2ncc(Cl)c(Nc3cc(C)[nH]n3)n2)c(C)cc1C1CCN(C)CC1 [Compound 287, methyl 5-(5-chloro-4-(5-methyl-1H-pyrazol-3-ylamino)pyrimidin-2-ylamino)-4-methyl-2-(1-methylpiperidin-4-yl)benzoate] | 27
Cc1cc(Nc2nc(Nc3cc(C)c(C4CCN(Cc5noc(C)n5)CC4)cc3C)ncc2Cl)n[nH]1 [Compound 304, 5-chloro-N2-(2,5-dimethyl-4-(1-((5-methyl-1,2,4-oxadiazol-3-yl)methyl)piperidin-4-yl)phenyl)-N4-(5-methyl-1H-pyrazol-3-yl)pyrimidine-2,4-diamine] | 5
Cc1cc(Nc2nc(Nc3cc(C)c(C4CCN(C(=O)CCN(C)C)CC4)cc3F)ncc2Cl)n[nH]1 [Compound 78, 1-(4-(4-(5-chloro-4-(5-methyl-1H-pyrazol-3-ylamino)pyrimidin-2-ylamino)-5-fluoro-2-methylphenyl)piperidin-1-yl)-3-(dimethylamino)propan-1-one] | 138
Cc1cc(Nc2nc(Nc3cc(C)c(C4CCN(Cc5cncnc5)CC4)cc3C)ncc2Cl)n[nH]1 [Compound 317, 5-chloro-N2-(2,5-dimethyl-4-(1-(pyrimidin-5-ylmethyl)piperidin-4-yl)phenyl)-N4-(5-methyl-1H-pyrazol-3-yl)pyrimidine-2,4-diamine] | 4
Cc1cc(Nc2nc(Nc3cc(C)c(C4CCCCN4C)cc3C)ncc2Cl)n[nH]1 (centres unmarked) [Compound 16, 5-chloro-N2-(2,5-dimethyl-4-(1-methylpiperidin-2-yl)phenyl)-N4-(5-methyl-1H-pyrazol-3-yl)pyrimidine-2,4-diamine] | 19
Cc1cc(Nc2nc(Nc3cc(C)c(C4CCN(Cc5nc(C(C)C)no5)CC4)cc3F)ncc2Cl)n[nH]1 [Compound 259, 5-Chloro-N^2-(2-fluoro-4-(1-((3-isopropyl-1,2,4-oxadiazol-5-yl)methyl)piperidin-4-yl)-5-methylphenyl)-N-(5-methyl-1H-pyrazol-3-yl)pyrimidine-2,4-diamine] | 64
Cc1cc(Nc2nc(Nc3cc(C)c(C4CCOC(=O)C4)cc3C)ncc2Cl)n[nH]1 (centres unmarked) [Compound 152, 4-(4-(5-chloro-4-(5-methyl-1H-pyrazol-3-ylamino)pyrimidin-2-ylamino)-2,5-dimethylphenyl)tetrahydro-2H-pyran-2-one] | 155
Cc1cc(Nc2nc(Nc3cc(C)c(C4CCN(C(=O)[C@H]5CCCN5C)CC4)cc3C)ncc2Cl)n[nH]1 [Compound 133, (R)-(4-(4-(5-chloro-4-(5-methyl-1H-pyrazol-3-ylamino)pyrimidin-2-ylamino)-2,5-dimethylphenyl)piperidin-1-yl)(1-methylpyrrolidin-2-yl)methanone] | 13
Cc1cc(Nc2nc(Nc3cc(C)c(C4CCN(CCS(=O)(=O)N5CCC5)CC4)cc3F)ncc2Cl)n[nH]1 [Compound 61, N2-(4-(1-(2-(azetidin-1-ylsulfonyl)ethyl)piperidin-4-yl)-2-fluoro-5-methylphenyl)-5-chloro-N4-(5-methyl-1H-pyrazol-3-yl)pyrimidine-2,4-diamine] | 56
Cc1cc(Nc2nc(Nc3cc(C)c(C4CCN(Cc5ccnnc5)CC4)cc3F)ncc2Cl)n[nH]1 [Compound 316, 5-chloro-N2-(2-fluoro-5-methyl-4-(1-(pyridazin-4-ylmethyl)piperidin-4-yl)phenyl)-N4-(5-methyl-1H-pyrazol-3-yl)pyrimidine-2,4-diamine] | 27
Cc1cc(Nc2nc(Nc3cc(C)c(C4CCN(C(=O)N(C)C)CC4)cc3F)ncc2Cl)n[nH]1 [Compound 69, 4-(4-(5-Chloro-4-(5-methyl-1H-pyrazol-3-ylamino)pyrimidin-2-ylamino)-5-fluoro-2-methylphenyl)-N,N-dimethylpiperidine-1-carboxamide] | 11
CCN1CCC(c2cc(C)c(Nc3ncc(Cl)c(Nc4cc(C5CC5)[nH]n4)n3)cc2C)CC1 [Compound 205, 5-chloro-N4-(5-cyclopropyl-1H-pyrazol-3-yl)-N2-(4-(1-ethylpiperidin-4-yl)-2,5-dimethylphenyl)pyrimidine-2,4-diamine] | 19
Cc1cc(Nc2nc(Nc3cc(C)c(C4CCN(C(=O)c5c(C)noc5C)CC4)cc3F)ncc2Cl)n[nH]1 [Compound 137, (4-(4-(5-chloro-4-(5-methyl-1H-pyrazol-3-ylamino)pyrimidin-2-ylamino)-5-fluoro-2-methylphenyl)piperidin-dimethylisoxazol-4-yl)methanone] | 18
Cc1cc(Nc2nc(Nc3cc(Cl)c(C4CCN(C(=O)CN5CCOCC5)CC4)cc3C)ncc2Cl)n[nH]1 [Compound 95, 1-(4-(2-chloro-4-(5-chloro-4-(5-methyl-1H-pyrazol-3-ylamino)pyrimidin-2-ylamino)-5-methylphenyl)piperidin-1-yl)-2-morpholinoethanone] | 6
Cc1cc(Nc2nc(Nc3cc(C)c(C4CCN(C(=O)C5(N)CCC5)CC4)cc3C)ncc2Cl)n[nH]1 [Compound 91, (1-aminocyclobutyl)(4-(4-(5-chloro-4-(5-methyl-1H-pyrazol-3-ylamino)pyrimidin-2-ylamino)-2,5-dimethylphenyl)piperidin-1-yl)methanone] | 52
Cc1cc(Nc2nc(Nc3cc(C)c(C4CCN(C)CC4)cc3C)ncc2Cl)n[nH]1 [Compound 6, 5-chloro-N2-(2,5-dimethyl-4-(1-methylpiperidin-4-yl)phenyl)-N4-(5-methyl-1H-pyrazol-3-yl)pyrimidine-2,4-diamine] | 15
Cc1cc(Nc2nc(Nc3cc(C)c(C4CCN(C(=O)c5ccc[nH]5)CC4)cc3F)ncc2Cl)n[nH]1 [Compound 124, (4-(4-(5-chloro-4-(5-methyl-1H-pyrazol-3-ylamino)pyrimidin-2-ylamino)-5-fluoro-2-methylphenyl)piperidin-1-yl)(1H-pyrrol-2-yl)methanone] | 145
Cc1cc(C2CCN(C3CC3)CC2)c(C)cc1Nc1ncc(Cl)c(Nc2cc(C3CC3)[nH]n2)n1 [Compound 258, 5-chloro-N4-(5-cyclopropyl-1H-pyrazol-3-yl)-N2-(4-(1-cyclopropylpiperidin-4-yl)-2,5-dimethylphenyl)pyrimidine-2,4-diamine] | 26
